Reference: patent US20250281516A1, “NUTRACEUTICAL FORMULATION FOR POLYCYSTIC OVARY SYNDROME” (priority 2019, published 2025)

Tests used:
PCOS symptoms = assay: Physician's further feedback in general on PCOS symptom control; parameters: species or system women; details: in vivo
patients (ovulation) = details: inositol alone administered; cited from earlier work
infertile PCOS women = details: inositol and folic acid administered; cited from earlier work

## O[C@H]1[C@H](O)[C@@H](O)[C@H](O)[C@@H](O)[C@H]1O [inositol]
PCOS symptoms
  effectiveness compared with the combination formulation: not as effective
Patients (ovulation)
  patients showing improvement in ovulation: about 62%
Infertile PCOS women
  restoration of ovulation: about 70%

## O[C@H]1[C@H](O)[C@@H](O)[C@H](O)[C@@H](O)[C@H]1O [myo-inositol]
PCOS symptoms
  duration of treatment after which most PCOS symptoms were controlled: > 6 month
